Assay results as given in ChEMBL document CHEMBL4190174 (2016).
Calls of active or inactive are those of the source. The calls are words filed in the database; no cut-off is given here.

Assays:
U373 MG [1] = assay: Growth inhibition of empty vector transfected human U373 cells after 7 days by MTT assay; format: functional, U-373MG ATCC; settings: 168 h
SNB-19 [2] = assay: Growth inhibition of empty vector transfected human SNB19 cells after 7 days by MTT assay; format: functional; settings: SNB-19, 168 h
U373 MG [3] = assay: Growth inhibition of MGMT-transfected human U373 cells after 7 days by MTT assay; format: functional, U-373MG ATCC; settings: 168 h
SNB-19 [4] = assay: Growth inhibition of MGMT-transfected human SNB19 cells after 7 days by MTT assay; format: functional; settings: SNB-19, 168 h
SNB-19 [5] = assay: Potency index, ratio of temozolomide GI50 to compound GI50 for MGMT-transfected human SNB19 cells; format: functional
SNB-19 [6] = assay: Potency index, ratio of temozolomide GI50 to compound GI50 for empty vector transfected human SNB19 cells; format: functional
U373 MG [7] = assay: Potency index, ratio of temozolomide GI50 to compound GI50 for empty vector transfected human U373 cells; format: functional, U-373MG ATCC
U373 MG [8] = assay: Ratio of GI50 for MGMT-transfected human U373 cells to GI50 for empty vector transfected human U373 cells; format: functional, U-373MG ATCC
SNB-19 [9] = assay: Ratio of GI50 for MGMT-transfected human SNB19 cells to GI50 for empty vector transfected human SNB19 cells; format: functional
U373 MG [10] = assay: Potency index, ratio of temozolomide GI50 to compound GI50 for MGMT-transfected human U373 cells; format: functional, U-373MG ATCC
DNA [11] = assay: Induction of Escherichia coli pBR322 DNA interstrand cross linking using 5'-end labeled [gamma32P]ATP primer at <=1000 uM after 2 to 40 hrs by PAGE based autoradiographic method; format: nucleic-acid assay
DLD-1 [12] = assay: Growth inhibition of human DLD1 cells harboring hMSH6 mutation; format: functional
[13] = system: Panel NCI-60 (60 carcinoma cell lines); assay: Growth inhibition of human NCI60 cells after 48 hrs by MTT assay; format: functional
[14] = Growth inhibition of human SNB19VR cells by MTT assay; format: functional
[15] = Growth inhibition of human U373VR cells by MTT assay; format: functional
HCT-116 [16] = assay: Growth inhibition of human HCT116 cells harboring hMLH1 mutation; format: functional
dsDNA [17] = assay: Induction of double stranded DNA break in MGMT-transfected human U373 cells assessed as increase in gamma-H2AX level at 100 uM after 72 hrs by flow cytometry relative to control; format: cell-based
dsDNA [18] = assay: Induction of double stranded DNA break in MGMT-transfected human U373 cells assessed as increase in gamma-H2AX level at 100 uM after 72 hrs by flow cytometry; format: cell-based
Escherichia coli = assay: Induction of Escherichia coli linearized pBR322 DNA alkylation at clusters of 3/5 guanines using 5'-end labeled [gamma32P]ATP primer after 2 hrs by PAGE based taq polymerase stop assay
DNA [19] = assay: Induction of Escherichia coli pBR322 DNA cleavage assessed as covalent modification at N-7 guanine at 10 to 1000 uM after 2 hrs by PAGE based autoradiographic method; format: nucleic-acid assay
HCT-116 [20] = assay: Growth inhibition of human HCT116 cells harboring hMLH1 mutation relative to temozolomide; format: functional
DLD-1 [21] = assay: Growth inhibition of human DLD1 cells harboring hMSH6 mutation relative to temozolomide; format: functional

SMILES	GI50 (U373 MG [1]) [µM]	GI50 (SNB-19 [2]) [µM]	GI50 (U373 MG [3]) [µM]	GI50 (SNB-19 [4]) [µM]	also measured
CNC(=O)Cn1nnc2c(C(N)=O)ncn2c1=O	260	65.8	263	246	
CCOC(=O)C/N=N/Nc1[nH]cnc1C(N)=O	30.3	33.6	23.4	37.4	
NC(=O)c1ncn2c(=O)n(CC3CC3)nnc12	386	286	149	223	
NC(=O)c1ncn2c(=O)n(COCc3ccccc3)nnc12	16.5	52.2	28.8	48.5	
NC(=O)c1ncn2c(=O)n(CCCl)nnc12 [MITOZOLOMIDE]	22	10	40.3	68.4	RatioGI50 (SNB-19 [5]): 10; RatioGI50 (SNB-19 [6]): >3; RatioGI50 (U373 MG [7]): >3; RatioGI50 (U373 MG [8]): >2; RatioGI50 (SNB-19 [9]): >2; RatioGI50 (U373 MG [10]): 10
COCC/N=N/Nc1[nH]cnc1C(N)=O	> 500	> 500	> 500	> 500	
NC(=O)c1ncn2c(=O)n(CCC(=O)O)nnc12	> 250	> 250	> 250	> 250	
NC(=O)Cn1nnc2c(C(N)=O)ncn2c1=O	65.4	38	72.3	95.3	
COC(=O)Cn1nnc2c(C(N)=O)ncn2c1=O	32.1	47.5	46.4	49	
NC(=O)c1ncn2c(=O)n(CCO)nnc12	288	204	322	417	
CCOC(=O)C=[N+]=[N-]	> 800	> 800	> 800	> 800	
CC(C)(C)C(=O)OCn1nnc2c(C(N)=O)ncn2c1=O	13.2	45	28.9	28	
NC(=O)c1ncn2c(=O)n(CCl)nnc12	29.3	34.6	24.4	31	
Cn1nnc2c(C(N)=O)ncn2c1=O [TEMOZOLOMIDE]	72.9	45.6	395	526	Activity (DNA [11]): inactive; GI50 (DLD-1 [12]): > 500 µM; GI50 [13]: > 100 µM; GI50 [14]: 280 µM; RatioGI50 (U373 MG [8]): 5; RatioGI50 (SNB-19 [9]): 11; GI50 [15]: 289 µM; GI50 (HCT-116 [16]): > 500 µM
NC(=O)c1nc[nH]c1N/N=N/CC(F)F	205	68.8	248	70.3	
C[S+]([O-])Cn1nnc2c(C(N)=O)ncn2c1=O (stereo unspecified)	13.7	26.8	14.4	20.1	
CSCn1nnc2c(C(N)=O)ncn2c1=O	59	107	56.5	151	
C#CC/N=N/Nc1[nH]cnc1C(N)=O	32	39.1	35.6	33.9	fold change (FC) (dsDNA [17]): > 2; Activity (dsDNA [18]): Active; Activity (Escherichia coli): Dose-dependent effect; Activity (DNA [19]): Active
NC(=O)c1nc[nH]c1N/N=N/C1CC1	> 500	> 500	> 500	> 500	
NC(=O)CCn1nnc2c(C(N)=O)ncn2c1=O	138	321	355	398	

SMILES	GI50 (U373 MG [1]) [µM]	GI50 (SNB-19 [2]) [µM]	GI50 (U373 MG [3]) [µM]	GI50 (SNB-19 [4]) [µM]	also measured
CC(=O)OCn1nnc2c(C(N)=O)ncn2c1=O	11.8	48.3	39.4	40.4	
NC(=O)c1nc[nH]c1N/N=N/CC1CC1	> 500	> 500	> 500	> 500	
NC(=O)c1ncn2c(=O)n(C3CC3)nnc12	306	428	360	> 500	
NC(=O)c1nc[nH]c1N/N=N/CCO	383	441	336	> 500	
CS(=O)(=O)Cn1nnc2c(C(N)=O)ncn2c1=O	20.2	13.8	7.5	18.3	
C#CCn1nnc2c(C(N)=O)ncn2c1=O	37.6	35.6	36.1	37.8	Activity (DNA [11]): inactive; fold change (FC) (dsDNA [17]): > 2; fold change (FC) (HCT-116 [20]): >10; GI50 [14]: < 50 µM; Activity (dsDNA [18]): Active; fold change (FC) (DLD-1 [21]): >10; Activity (Escherichia coli): Dose-dependent effect; Activity (DNA [19]): Active; GI50 [15]: < 50 µM
COC(=O)C/N=N/Nc1[nH]cnc1C(N)=O	32.6	47.7	46.4	49.7	
CCOC(=O)CCn1nnc2c(C(N)=O)ncn2c1=O	129	367	143	255	
COCn1nnc2c(C(N)=O)ncn2c1=O	26	30.8	33.1	37.9	
NC(=O)c1ncn2c(=O)n(CC(=O)O)nnc12	69.5	265	140	296	
NC(=O)c1ncn2c(=O)n(CO)nnc12		46.2		42.1	
NC(=O)c1nc[nH]c1N/N=N/CC(F)(F)F	209	68.8	423	131	
C[Si](C)(C)C#CCn1nnc2c(C(N)=O)ncn2c1=O	30.3	39.1	30.7	39.5	
CC#CCn1nnc2c(C(N)=O)ncn2c1=O	36.5	39.6	33	37.6	
C=CCn1nnc2c(C(N)=O)ncn2c1=O	141	258	199	239	
CN(C)C(=O)Cn1nnc2c(C(N)=O)ncn2c1=O	85.1	67.7	92.5	73.4	
CCOC(=O)Cn1nnc2c(C(N)=O)ncn2c1=O	63.2	52.4	55.6	61.1	
N#CC/N=N/Nc1[nH]cnc1C(N)=O	106	111	242	271	
NC(=O)c1ncn2c(=O)n(CC(=O)N3CCOCC3)nnc12	243	62.3	132	102	
